In patent US8859535B2, “Hydroxy substituted isoquinolinone derivatives” (Novartis AG, priority 2011, dated 2014):

What was measured:
[1] = target: T1, human MDM2 protein (amino acids 2-188) (Homo sapiens, UniProt Q00987); assay: p53-MDM2 TR-FRET assay (p53-MDM2 Assay 1); assay type: binding; details: 1.25 nM MDM2-biotinylated, 10 nM Cy5-p53 peptide; read-out: IC50 (μM) of p53-Hdm2 inhibition (TR-FRET) Assay 1
T1 construct: human MDM2 protein (amino acids 2-188); made in house
Procedure, shortened: (§1)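 C-terminally biotinylated MDM2 (aa 2-188, 1.25 nM) or MDM4 (aa 2-185, 2.5 nM) with Eu-streptavidin (0.625 nM), 15 min preincubation, then 10 nM Cy5-p53 peptide (aa18-26), 15 min room temperature; TR-FRET 665/620 nm ratio, IC50 by curve fit. Modified MDM2 Assay 2 uses 0.1 nM MDM2 and 0.1 nM Eu-streptavidin.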

[2] = target: T2, human MDM4 protein (amino acids 2-185) (Homo sapiens, UniProt O15151); assay: p53-MDM4 TR-FRET assay (p53-MDM4 Assay 1); assay type: binding; details: 2.5 nM MDM4-biotinylated, 10 nM Cy5-p53 peptide; read-out: IC50 (μM) of p53-Hdm4 inhibition (TR-FRET) Assay 1
T2 construct: human MDM4 protein (amino acids 2-185); made in house
T2 sequence (O15151 2-185): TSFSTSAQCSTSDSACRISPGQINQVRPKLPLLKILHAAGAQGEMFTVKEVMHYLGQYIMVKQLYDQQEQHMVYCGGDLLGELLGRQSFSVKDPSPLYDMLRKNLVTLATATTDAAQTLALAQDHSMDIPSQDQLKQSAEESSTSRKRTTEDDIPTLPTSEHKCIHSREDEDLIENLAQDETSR
Procedure, shortened: as §1

T1 sequence (Q00987 2-188): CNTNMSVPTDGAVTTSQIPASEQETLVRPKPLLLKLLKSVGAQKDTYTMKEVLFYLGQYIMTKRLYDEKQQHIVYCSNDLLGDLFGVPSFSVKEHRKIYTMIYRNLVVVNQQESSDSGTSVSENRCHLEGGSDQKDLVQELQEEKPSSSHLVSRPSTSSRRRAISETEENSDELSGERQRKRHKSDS

| IC50 [1] [µM] | IC50 [2] [µM] | SMILES |
| --- | --- | --- |
| 0.246 | 90.2 | COc1cc2c(cc1OC(C)C)[C@H](c1ccc(Cl)cc1)N(c1ccc(C3(O)CCCC3)cc1)C(=O)C2 [Example 50, (S)-1-(4-Chloro-phenyl)-2-[4-(1-hydroxy-cyclopentyl)-phenyl]-7-isopropoxy-6-methoxy-1,4-dihydro-2H-isoquinolin-3-one] |
| 0.0731 | 45.3 | COc1cc2c(cc1OC(C)C)[C@H](c1ccc(Cl)cc1)N(c1ccc(C3(O)CCC3)cc1)C(=O)C2 [Example 51, (S)-1-(4-Chloro-phenyl)-2-[4-(1-hydroxy-cyclobutyl)-phenyl]-7-isopropoxy-6-methoxy-1,4-dihydro-2H-isoquinolin-3-one] |
| 0.0926 | 26.3 | COc1cc2c(cc1OC(C)C)[C@H](c1ccc(Cl)cc1)N(c1ccc(C3(O)CN(C(=O)OC(C)(C)C)C3)cc1)C(=O)C2 [Example 55, 3-{4-[(S)-1-(4-Chloro-phenyl)-7-isopropoxy-6-methoxy-3-oxo-3,4-dihydro-1H-isoquinolin-2-yl]-phenyl}-3-hydroxy-azetidine-1-carboxylic acid tert-butyl ester] |
| 0.186 | 88.4 | CNC(=O)N1CC(O)(c2ccc(N3C(=O)Cc4cc(OC)c(OC(C)C)cc4[C@@H]3c3ccc(Cl)cc3)cc2)C1 [Example 60, 3-{4-[(S)-1-(4-Chloro-phenyl)-7-isopropoxy-6-methoxy-3-oxo-3,4-dihydro-1H-isoquinolin-2-yl]-phenyl}-3-hydroxy-azetidine-1-carboxylic acid methylamide] |
| 0.342 | 77 | COc1cc2c(cc1OC(C)C)[C@H](c1ccc(Cl)cc1)N(c1ccc(C3(O)CN(S(C)(=O)=O)C3)cc1)C(=O)C2 [Example 62, (S)-1-(4-Chloro-phenyl)-2-[4-(3-hydroxy-1-methanesulfonyl-azetidin-3-yl)-phenyl]-7-isopropoxy-6-methoxy-1,4-dihydro-2H-isoquinolin-3-one] |
| 0.0154 | 40.5 | COc1cc2c(cc1OC(C)C)[C@H](c1ccc(Cl)cc1)N(c1ccc(C(C)(O)C3CCCCC3)cc1)C(=O)C2 (stereo partly drawn) [Example 63, (S)-1-(4-Chloro-phenyl)-2-[4-(1-cyclohexyl-1-hydroxy-ethyl)-phenyl]-7-isopropoxy-6-methoxy-1,4-dihydro-2H-isoquinolin-3-one] |
| 0.0072 | 10.6 | COc1cc2c(cc1OC(C)C)[C@H](c1ccc(Cl)cc1)N(c1ccc(C(C)(O)C3CN(C(=O)OC(C)(C)C)C3)cc1)C(=O)C2 (stereo partly drawn) [Example 64, 3-(1-{4-[(S)-1-(4-Chloro-phenyl)-7-isopropoxy-6-methoxy-3-oxo-3,4-dihydro-1H-isoquinolin-2-yl]-phenyl}-1-hydroxy-ethyl)-azetidine-1-carboxylic acid tert-butyl ester] |
| 0.0423 | 41.2 | COc1cc2c(cc1OC(C)C)[C@H](c1ccc(Cl)cc1)N(c1ccc(C(C)(O)C3CNC3)cc1)C(=O)C2 (stereo partly drawn) [Example 65, (S)-2-[4-(1-Azetidin-3-yl-1-hydroxy-ethyl)-phenyl]-1-(4-chloro-phenyl)-7-isopropoxy-6-methoxy-1,4-dihydro-2H-isoquinolin-3-one] |
| 0.0146 | 13.5 | COc1cc2c(cc1OC(C)C)[C@H](c1ccc(Cl)cc1)N(c1ccc(C(C)(O)C3CN(C(C)=O)C3)cc1)C(=O)C2 (stereo partly drawn) [Example 66, (S)-2-{4-[1-(1-Acetyl-azetidin-3-yl)-1-hydroxy-ethyl]-phenyl}-1-(4-chloro-phenyl)-7-isopropoxy-6-methoxy-1,4-dihydro-2H-isoquinolin-3-one] |
| 0.0152 | 16.7 | CNC(=O)N1CC(C(C)(O)c2ccc(N3C(=O)Cc4cc(OC)c(OC(C)C)cc4[C@@H]3c3ccc(Cl)cc3)cc2)C1 (stereo partly drawn) [Example 67, 3-(1-{4-[(S)-1-(4-Chloro-phenyl)-7-isopropoxy-6-methoxy-3-oxo-3,4-dihydro-1H-isoquinolin-2-yl]-phenyl}-1-hydroxy-ethyl)-azetidine-1-carboxylic acid methylamide] |
| 0.0152 | 15 | COc1cc2c(cc1OC(C)C)[C@H](c1ccc(Cl)cc1)N(c1ccc(C(C)(O)C3CN(C(=O)N(C)C)C3)cc1)C(=O)C2 (stereo partly drawn) [Example 68, 3-(1-{4-[(S)-1-(4-Chloro-phenyl)-7-isopropoxy-6-methoxy-3-oxo-3,4-dihydro-1H-isoquinolin-2-yl]-phenyl}-1-hydroxy-ethyl)-azetidine-1-carboxylic acid dimethylamide] |
| 0.0363 | 40.5 | COc1cc2c(cc1OC(C)C)[C@H](c1ccc(Cl)cc1)N(c1ccc(C(C)(O)C3CN(CCC(F)(F)F)C3)cc1)C(=O)C2 (stereo partly drawn) [Example 69, (S)-1-(4-Chloro-phenyl)-2-(4-{1-hydroxy-1-[1-(3,3,3-trifluoro-propyl)-azetidin-3-yl]-ethyl}-phenyl)-7-isopropoxy-6-methoxy-1,4-dihydro-2H-isoquinolin-3-one] |
| 0.0547 | 60.1 | COc1cc2c(cc1OC(C)C)[C@H](c1ccc(Cl)cc1)N(c1ccc(C(C)(O)C3CN(C)C3)cc1)C(=O)C2 (stereo partly drawn) [Example 70, (S)-1-(4-Chloro-phenyl)-2-{4-[1-hydroxy-1-(1-methyl-azetidin-3-yl)-ethyl]-phenyl}-7-isopropoxy-6-methoxy-1,4-dihydro-2H-isoquinolin-3-one] |
| 0.026 | 30.1 | CCN1CC(C(C)(O)c2ccc(N3C(=O)Cc4cc(OC)c(OC(C)C)cc4[C@@H]3c3ccc(Cl)cc3)cc2)C1 (stereo partly drawn) [Example 71, (S)-1-(4-Chloro-phenyl)-2-{4-[1-(1-ethyl-azetidin-3-yl)-1-hydroxy-ethyl]-phenyl}-7-isopropoxy-6-methoxy-1,4-dihydro-2H-isoquinolin-3-one] |
| 0.0234 | 18.4 | COc1cc2c(cc1OC(C)C)[C@H](c1ccc(Cl)cc1)N(c1ccc(C(C)(O)C3CN(C(C)C)C3)cc1)C(=O)C2 (stereo partly drawn) [Example 72, (S)-1-(4-Chloro-phenyl)-2-{4-[1-hydroxy-1-(1-isopropyl-azetidin-3-yl)-ethyl]-phenyl}-7-isopropoxy-6-methoxy-1,4-dihydro-2H-isoquinolin-3-one] |
| 0.0179 | 18.9 | COc1cc2c(cc1OC(C)C)[C@H](c1ccc(Cl)cc1)N(c1ccc(C(C)(O)C3CN(S(C)(=O)=O)C3)cc1)C(=O)C2 (stereo partly drawn) [Example 73, (S)-1-(4-Chloro-phenyl)-2-{4-[1-hydroxy-1-(1-methanesulfonyl-azetidin-3-yl)-ethyl]-phenyl}-7-isopropoxy-6-methoxy-1,4-dihydro-2H-isoquinolin-3-one] |
| 0.0179 | 18 | COc1cc2c(cc1OC(C)C)[C@H](c1ccc(Cl)cc1)N(c1ccc(C(C)(O)C3CN(CC(F)(F)F)C3)cc1)C(=O)C2 (stereo partly drawn) [Example 74, (S)-1-(4-Chloro-phenyl)-2-(4-{1-hydroxy-1-[1-(2,2,2-trifluoro-ethyl)-azetidin-3-yl]-ethyl}-phenyl)-7-isopropoxy-6-methoxy-1,4-dihydro-2H-isoquinolin-3-one] |
| 0.0043 | 4.95 | COc1cc2c(cc1OC(C)C)[C@H](c1ccc(Cl)cc1)N(c1ccc(C(C)(O)C3CCN(C(N)=O)CC3)cc1)C(=O)C2 (stereo partly drawn) [Example 75, 4-(1-{4-[(S)-1-(4-Chloro-phenyl)-7-isopropoxy-6-methoxy-3-oxo-3,4-dihydro-1H-isoquinolin-2-yl]-phenyl}-1-hydroxy-ethyl)-piperidine-1-carboxylic acid amide] |
| 0.011 | 13.5 | COc1cc2c(cc1OC(C)C)[C@H](c1ccc(Cl)cc1)N(c1ccc(C(C)(O)C3CCN(CC(F)(F)F)CC3)cc1)C(=O)C2 (stereo partly drawn) [Example 77, (S)-1-(4-Chloro-phenyl)-2-(4-{1-hydroxy-1-[1-(2,2,2-trifluoro-ethyl)-piperidin-4-yl]-ethyl}-phenyl)-7-isopropoxy-6-methoxy-1,4-dihydro-2H-isoquinolin-3-one] |
| 0.0043 | 3.18 | COc1cc2c(cc1OC(C)C)[C@H](c1ccc(Cl)cc1)N(c1ccc(C(C)(O)C3CCN(C(C)C)CC3)cc1)C(=O)C2 (stereo partly drawn) [Example 78, (S)-1-(4-Chloro-phenyl)-2-{4-[1-hydroxy-1-(1-isopropyl-piperidin-4-yl)-ethyl]-phenyl}-7-isopropoxy-6-methoxy-1,4-dihydro-2H-isoquinolin-3-one] |
| 0.0052 | 5.63 | CNC(=O)N1CCC(C(C)(O)c2ccc(N3C(=O)Cc4cc(OC)c(OC(C)C)cc4[C@@H]3c3ccc(Cl)cc3)cc2)CC1 (stereo partly drawn) [Example 79, 4-(1-{4-[(S)-1-(4-Chloro-phenyl)-7-isopropoxy-6-methoxy-3-oxo-3,4-dihydro-1H-isoquinolin-2-yl]-phenyl}-1-hydroxy-ethyl)-piperidine-1-carboxylic acid methylamide] |
| 0.0052 | 5.11 | COc1cc2c(cc1OC(C)C)[C@H](c1ccc(Cl)cc1)N(c1ccc(C(C)(O)C3CCN(C(=O)C4CC4)CC3)cc1)C(=O)C2 (stereo partly shown) [Example 80] |
| 0.0057 | 5.11 | COc1cc2c(cc1OC(C)C)[C@H](c1ccc(Cl)cc1)N(c1ccc(C(C)(O)C3CCN(S(C)(=O)=O)CC3)cc1)C(=O)C2 (stereo partly drawn) [Example 81, (S)-1-(4-Chloro-phenyl)-2-{4-[1-hydroxy-1-(1-methanesulfonyl-piperidin-4-yl)-ethyl]-phenyl}-7-isopropoxy-6-methoxy-1,4-dihydro-2H-isoquinolin-3-one] |
